Measured values as given in patent US11311530B2, “Lewy body disease therapeutic agent containing pyrazoloquinoline derivative” (Eisai R&D Management Co., Ltd., priority 2017, dated 2022).

How the values were obtained:
[1] = system: rat with scopolamine-induced cognitive impairment; test: Novel object recognition test using rats with scopolamine-induced cognitive impairment; assay type: in vivo; settings: for percentage of exploration of the novel object during T2: scopolamine 0.7 mg/kg s.c., male Long Evans rats, mean ± standard error
Experimental: A novel object recognition test using rats with scopolamine-induced cognitive impairment was performed to confirm the effect of improving cognitive impairment induced by an acetylcholine nerve disorder. The novel object recognition test is a test system for assessing cognitive function based on the spontaneous behavioral characteristic of a rodent in which the rodent spends more time exploring a novel object than a familiar object. The test method described in Ennacer etc. Behavioural Brain Research, 31 (1988) pp. 47-51 was partially modified and performed.
Six-week-old male Long Evans rats (the Institute for Animal Reproduction) were subjected to the test. For two days before the test, a process for habituating the rat to the experimental procedure was performed once daily. In the habituation process, administration of a vehicle to the rat was performed, and subsequently, the rat was placed in an empty test apparatus (40 cm×30 cm×H 45 cm) and allowed to explore for 3 minutes, was transferred into a waiting chamber (13 cm×30 cm×H 45 cm) for about 1 minute, and then was returned into the empty test apparatus again and allowed to stay for 5 minutes.
On the day of the test, an acquisition trial (T1) was performed. Compound (I) was administered orally by using a solution of 0.5% methylcellulose in 0.01 M hydrochloric acid as a vehicle 2 hours before T1. Scopolamine (Wako Pure Chemical Industries, Ltd.) was administered subcutaneously by using a saline as a vehicle at a dose of 0.7 mg/kg 30 minutes before T1. […] The behaviors of the rat during T1 and T2 were recorded by a digital video camera and the total exploration time for each object was measured manually using a stopwatch. […]
In the novel object recognition test, a percentage of exploration of the novel object during T2 is considered as an amnesia index that reflects discrimination between the familiar object and the novel object. The percentage of exploration of the novel object was calculated in accordance with the following equation. […]
The results were expressed as mean±standard error. […]

[2] = molecular target: phosphodiesterase 9 (PDE9) (Homo sapiens, UniProt O76083); settings: from Patent Literature 1; cited from earlier work
Chain of phosphodiesterase 9 (PDE9) (O76083 whole entry): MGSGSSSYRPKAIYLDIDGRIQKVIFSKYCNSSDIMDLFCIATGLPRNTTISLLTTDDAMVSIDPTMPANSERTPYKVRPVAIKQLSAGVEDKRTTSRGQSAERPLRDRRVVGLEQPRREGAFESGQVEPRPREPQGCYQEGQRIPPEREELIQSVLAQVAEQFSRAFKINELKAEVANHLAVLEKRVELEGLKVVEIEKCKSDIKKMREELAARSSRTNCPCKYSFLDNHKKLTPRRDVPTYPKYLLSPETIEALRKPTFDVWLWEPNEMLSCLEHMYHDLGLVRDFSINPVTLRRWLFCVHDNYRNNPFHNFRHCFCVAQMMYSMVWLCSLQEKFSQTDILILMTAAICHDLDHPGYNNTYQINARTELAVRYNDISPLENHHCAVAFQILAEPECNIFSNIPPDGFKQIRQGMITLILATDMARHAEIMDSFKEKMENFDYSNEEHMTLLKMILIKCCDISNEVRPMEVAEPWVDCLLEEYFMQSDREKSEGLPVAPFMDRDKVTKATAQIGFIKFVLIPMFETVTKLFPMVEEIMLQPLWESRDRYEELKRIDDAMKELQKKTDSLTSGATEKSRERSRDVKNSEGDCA

COc1ncc(C)c(-c2ccc3c(c2)[nH]c(=O)c2cnn([C@H]4CCOC4)c23)c1C [Compound (I), (S)-7-(2-methoxy-3,5-dimethylpyridin-4-yl)-1-(tetrahydrofuran-3-yl)-1H-pyrazolo[4,3-c]quinolin-4(5H)-one]
percentage of exploration of the novel object during T2 ([1]; 3.3 mg/kg orally 2 hours before T1): 68.5 ± 2.0 %
percentage of exploration of the novel object during T2 ([1]; 10 mg/kg orally 2 hours before T1): 68.5 ± 1.6 %
effect of improving the percentage of exploration of the novel object ([1]; at 3.3 mg/kg and 10 mg/kg, versus disease control group, Dunnett's test, p<0.05): significant effect of improving the percentage of exploration of the novel object
PDE9 inhibitory action [2]: exhibits a PDE9 inhibitory action
